Measured values from ChEMBL document CHEMBL4052720, “Activity cliff for 7-substituted pyrrolo-pyrimidine inhibitors of HCK explained in terms of predicted basicity of the amine nitrogen” (Bioorg Med Chem, 2017).

Tests used:
[1] = target: T1, Tyrosine-protein kinase HCK (Homo sapiens, UniProt P08631); assay: Inhibition of HCK (75 to 526 residues) (unknown origin) expressed in Sf9 insect cells after 120 mins
[2] = target: T1, Tyrosine-protein kinase HCK; assay: biochemical

T1 sequence (P08631 whole entry, the tested form may be a part): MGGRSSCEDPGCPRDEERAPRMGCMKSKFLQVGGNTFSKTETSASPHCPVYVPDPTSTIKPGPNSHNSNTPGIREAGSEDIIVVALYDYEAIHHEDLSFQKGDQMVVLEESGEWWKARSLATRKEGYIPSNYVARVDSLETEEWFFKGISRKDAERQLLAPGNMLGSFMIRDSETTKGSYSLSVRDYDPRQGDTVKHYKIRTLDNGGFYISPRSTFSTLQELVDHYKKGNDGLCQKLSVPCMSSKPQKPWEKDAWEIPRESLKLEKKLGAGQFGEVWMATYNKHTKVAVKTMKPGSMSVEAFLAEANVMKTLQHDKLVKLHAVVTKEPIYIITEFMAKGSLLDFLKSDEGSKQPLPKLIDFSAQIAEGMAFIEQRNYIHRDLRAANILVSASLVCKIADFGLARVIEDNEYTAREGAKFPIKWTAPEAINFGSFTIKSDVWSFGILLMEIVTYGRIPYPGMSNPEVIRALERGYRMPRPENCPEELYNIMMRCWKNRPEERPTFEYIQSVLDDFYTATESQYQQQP

| SMILES | IC50 ([1]; read-out: IC50) | IC50 ([1]; read-out: pIC50 (converted)) | IC50 [2] |
| --- | --- | --- | --- |
| CC(C)C[C@H](N[C@H]1CC[C@H](n2cc(-c3ccc(Oc4ccccc4)cc3)c3c(N)ncnc32)CC1)C(N)=O | 0.21 µM | – | – |
| CC(C)C[C@H](N[C@H]1CC[C@H](n2cc(-c3ccc(Oc4ccccc4)cc3)c3c(N)ncnc32)CC1)C(=O)O | 0.011 µM | – | – |
| CCOC(=O)[C@H](CC(C)C)N[C@H]1CC[C@H](n2cc(-c3ccc(Oc4ccccc4)cc3)c3c(N)ncnc32)CC1 | 1.32 µM | – | – |
| CC(C)C[C@H](N[C@H]1CC[C@H](n2cc(-c3ccc(Oc4ccccc4)cc3)c3c(N)ncnc32)CC1)C(=O)N(C)C | 0.686 µM | – | – |
| CN1CCN([C@H]2CC[C@H](n3cc(-c4ccc(Oc5ccccc5)cc4)c4c(N)ncnc43)CC2)CC1 | – | 0.000427 µM | 0.00043 µM |
| CNC(=O)[C@H](CC(C)C)N[C@H]1CC[C@H](n2cc(-c3ccc(Oc4ccccc4)cc3)c3c(N)ncnc32)CC1 | 0.111 µM | – | – |
